From article PMC5017735, “A Novel Peptide Derived from the Fusion Protein Heptad Repeat Inhibits Replication of Subacute Sclerosing Panencephalitis Virus In Vitro and In Vivo” (PLoS ONE, 2016) come the findings set out here.

As a reminder, the EC50 is the concentration that produces a half-maximal response. A higher EC50 goes with lower potency in that assay.

One data set has as its system MV Edmonston strain. Kind of data set: Viral plaque reduction assay, measles virus in Vero cells. Format: cell-based. To be noted: Vero cells. On the procedure: (§1) African green monkey kidney (Vero) cells and Vero cells expressing human SLAM (Vero/SLAM cells) were used in all experiments. The growth medium for Vero cells comprised minimal essential medium (MEM) supplemented with 10% heat-inactivated newborn bovine serum, penicillin G (100 IU/ml), streptomycin (100 μg/ml), and L-glutamine (300 μg/ml). The same growth medium, which was further supplemented with G418 (400 μg/ml), was used for Vero/SLAM cells. Cells were seeded into the wells (22 mm) of 12-well tissue culture plates at 1 × 10^5 cells/well and incubated at 37°C in a 10% CO2 incubator for 3 days, at which time they had just reached confluence. The virus strains used were human MV Edmonston strain and SSPE Yamagata-1 [34], which was originally isolated from the brain of an SSPE patient. The Edmonston strain of MV was used to inoculate Vero/SLAM cells and harvested after freeze–thawing infected cells. The SSPE Yamagata-1 strain was cultured in Vero/SLAM cells, harvested by trypsinization, prepared as an infected cell suspension in the Vero/SLAM cell medium supplemented with 10% dimethyl sulfoxide, and stored at −80°C until use.
(§2) Screening was performed to evaluate the antiviral effects of each synthetic peptide against the MV and SSPE viruses using the viral plaque reduction assay. Based on the results of the peptide screening, the 50% effective concentration (EC50), i.e., the concentration of compounds required to inhibit virus plaque formation by 50%, was also determined. The Human MV Edmonston strain was used to produce cell-free virions, which yielded a reproducible number of syncytia [generally 200–300 plaque-forming units (PFUs)] in the control wells. The SSPE virus was also used to yield a reproducible number of syncytia (generally 70–150 PFU) in control wells. In the peptide screening assay, each synthetic peptide was used at a concentration of 10 μM. IFN-α and enfuvirtide, a peptide fusion inhibitor of HIV-1, were used as controls at a concentration of 250 IU/ml and 10 μM, respectively.

Data set [1] concerns SSPE Yamagata-1 strain. Briefly: Viral plaque reduction assay, SSPE virus in Vero cells. The format is cell-based, SSPE virus (variant measles virus). On the procedure:
as §1, §2

Data set [2] relates to SSPE Yamagata-1 strain. Kind of data set: Viral plaque reduction assay, SSPE virus in Vero/SLAM cells. Format: cell-based, SSPE virus (variant measles virus). The method, then:
as §1, §2
(Plaques are areas of infected cells; plaque reduction assays count them against a control.)

A further data set deals with Vero cells. Kind of data set: Methyl tetrazolium cytotoxicity assay, Vero cells. The format is cell-based, African green monkey. The following applies: confluent Vero cells, 24 h, 37°C. The method, then: (§3) Peptide cytotoxicity was determined using the methyl tetrazolium assay. Five-fold serial dilutions of peptides were added to confluent Vero or Vero/SLAM cells. Cells were then incubated at 37°C for 24 h, and the number of viable cells was determined using 3-(4,5-dimethyllthiazol-2-yl)-2,5-diphenylterazolium bromide (Sigma–Aldrich, Tokyo, Japan). The 50% cytotoxic concentration (CC50), which was defined as the concentration required to reduce the cell viability by 50% relative to that of untreated controls, was determined. The selectivity index (SI) was defined as the ratio of the CC50 relative to the EC50 value.

The subject of a further data set is Vero/SLAM cells. Kind of data set: Methyl tetrazolium cytotoxicity assay, Vero/SLAM cells. To be noted: confluent Vero/SLAM cells, 24 h, 37°C. Format: cell-based, African green monkey. On the procedure:
as §3

The next data set concerns SSPE virus. Briefly: Time-of-addition experiments, SSPE virus in Vero cells. The format is cell-based, SSPE virus (variant measles virus). On the procedure: Synthetic peptides, M1 and M2EK (10 μM each) were used in time-of-addition experiments. Each peptide was added to Vero cells at three distinct time points: prior to infection (pretreatment with the compound), at the same time as the virus infection (simultaneous infection), or post-infection (post-entry). The SSPE virus was prepared to yield a reproducible number of syncytia in untreated control wells (approximately 50–100/well). In the pretreatment assay, peptide was added to confluent cells and incubated at 37°C for 30 min, and the cell cultures were washed with MEM before viral inoculation. Cells were then challenged with the SSPE virus at 0°C for 30 min. In the simultaneous infection assay, SSPE virus with peptide was inoculated at 0°C for 30 min. After the adsorption, the cell cultures were subsequently washed with MEM, and growth medium containing 0.75% methylcellulose was overlaid on the cell cultures, followed by incubation for 3 days in both pretreatment and simultaneous infection assays. In the post-entry assay, cells were challenged with the SSPE virus at 0°C for 30 min. After adsorption, the cell cultures were subsequently washed with MEM and peptide, which was prepared in growth medium containing 0.75% methylcellulose, was subsequently overlaid on the cell cultures at distinct time points. The starting point when cells were incubated at 0°C for 30 min was defined as t0.

Data set [3] deals with SSPE Yamagata-1 strain. Briefly: Animal survival experiment, SSPE virus-infected nude mouse model. Format: in vivo, BALB/cAJcl-nu/nu mice. To be noted: SSPE virus 250 PFU intracranial; peptide 100 μM intracranial at 0, 6 and 24 h; n = 6; control group 0%. On the procedure:
Based on a previous report, but with slight modifications, 3-week-old female BALB/cAJcl-nu/nu mice (CLEA Japan Inc., Tokyo, Japan) were used in the animal experiments. Mice were divided in four groups (n = 6 for each cage) and housed with free access to both water and food and monitored daily. The mice were SSPE virus-infected or mock-infected (MEM alone) intracranially. An SSPE virus-infected cell suspension containing 250 PFU/ 30 μl (100% lethal dose) was inoculated into the subarachnoid space of nude mice using a 27-gauge double needle at a depth of 2 mm. Each compound was prepared at a concentration of 100 μM and was injected intracranially at 0 (mixed with viruses), 6, and 24 h after the initial virus inoculation. All injections were performed under inhalational anesthesia with isoflurane. Each mouse was checked for neurological symptoms and weighed daily. The ethical endpoint was defined as <75% of their maximum weight because most mice would die within 24 h. On attaining this endpoint, the mice were sacrificed by cervical dislocation under inhalational anesthesia with isoflurane. In this experiment, five mice died of natural causes before the ethical endpoint; however, all mice had neurological symptoms and 9.5%, 13.2%,14.5%, 15.8%, 16.4% weight loss (one each) relative to their maximum weight. […]

The test system of data set [4] is SSPE Yamagata-1 strain. Briefly: Viral RNA quantification in whole brain of SSPE virus-infected nude mice. Format: in vivo, BALB/cAJcl-nu/nu mice. To be noted: day 14 post-infection; intracranial peptide; n = 5 per group; P < 0.05. On the procedure:
Mice were divided in three groups (n = 5 for each cage) and housed with free access to both water and food and monitored daily. Mice were infected with SSPE virus intracranially in the same as animal survival experiments. Euthanasia was performed by cervical dislocation under isoflurane anesthesia on day 14 post-infection. The brain of each mouse was immediately harvested and mechanically homogenized with 2 ml Vero/SLAM cell growth medium using a PRO200 handheld or post-mounted homogenizer (PRO Scientific Inc., CT, USA). The homogenized brains were stored at −80°C. Viral RNA was extracted using ISOGEN-LS, and cDNA was synthesized using a reverse transcription kit (PrimeScript RT-reagent kit). MV RNA was quantified using a TaqMan real-time polymerase chain reaction assay, as previously described. The primer and probe were designed based on the MV Edmonston strain N gene, as previously reported. PCR amplification was performed using a 7300 Real-Time PCR system (Applied Biosystem). The control plasmid was produced by Dragon Genomics Center (Takara Bio, Mie, Japan) based on the MV Edmonston strain N gene (position 1321–1500).

Data set [5] in a line: In vivo toxicity, mice administered peptides alone. The arrangement: species or system BALB/cAJcl-nu/nu mice. To be noted: peptide 100 μM intracranial, no virus infection. On the procedure: Based on a previous report, but with slight modifications, 3-week-old female BALB/cAJcl-nu/nu mice (CLEA Japan Inc., Tokyo, Japan) were used in the animal experiments. Mice were divided in four groups (n = 6 for each cage) and housed with free access to both water and food and monitored daily. The mice were SSPE virus-infected or mock-infected (MEM alone) intracranially. An SSPE virus-infected cell suspension containing 250 PFU/ 30 μl (100% lethal dose) was inoculated into the subarachnoid space of nude mice using a 27-gauge double needle at a depth of 2 mm. Each compound was prepared at a concentration of 100 μM and was injected intracranially at 0 (mixed with viruses), 6, and 24 h after the initial virus inoculation. All injections were performed under inhalational anesthesia with isoflurane. Each mouse was checked for neurological symptoms and weighed daily. The ethical endpoint was defined as <75% of their maximum weight because most mice would die within 24 h. On attaining this endpoint, the mice were sacrificed by cervical dislocation under inhalational anesthesia with isoflurane. In this experiment, five mice died of natural causes before the ethical endpoint; however, all mice had neurological symptoms and 9.5%, 13.2%,14.5%, 15.8%, 16.4% weight loss (one each) relative to their maximum weight. This study was approved by the control of the Animal Research Committee in accordance with the Guidelines on Animal Experiments in Fukushima Medical University and the Rules for the Protection and Care of Animals (approval number: 23038).

Where [6] appears, read: selectivity index, ratio of CC50 relative to EC50.

Peptide text beside a SMILES is read from it. Bounds are passed on as bounds.

Take `CC[C@H](C)[C@H](NC(=O)[C@H](CCC(=O)O)NC(=O)[C@H](CCC(=O)O)NC(=O)[C@H](CO)NC(=O)[C@H](CCCCN)NC(=O)[C@H](CCCCN)NC(=O)[C@H](CC(C)C)NC(=O)[C@H](CC(C)C)NC(=O)[C@H](CCC(=O)O)NC(=O)[C@H](CCC(=O)O)NC(=O)[C@H](C)NC(=O)[C@H](CCCCN)NC(=O)[C@H](CCCCN)NC(=O)[C@H](CC(C)C)NC(=O)[C@H](CCCCN)NC(=O)[C@H](CCC(=O)O)NC(=O)[C@H](CCC(=O)O)NC(=O)[C@H](C)NC(=O)[C@H](CCCCN)NC(=O)[C@H](CCCCN)NC(=O)[C@H](CC(C)C)NC(=O)[C@H](CC(N)=O)NC(=O)[C@H](CCC(=O)O)NC(=O)[C@H](CCC(=O)O)NC(=O)[C@@H](NC(C)=O)C(C)C)C(=O)N[C@@H](CC(C)C)C(=O)N[C@@H](CCCCN)C(=O)N[C@@H](CCCCN)C(=O)N[C@@H](CCSC)C(=O)N[C@@H](CCC(=O)O)C(=O)N[C@@H](CCC(=O)O)C(=O)N[C@@H](CC(C)C)C(=O)N[C@@H](CO)C(=O)N[C@@H](CCCCN)C(=O)N[C@@H](CCCCN)C(N)=O` [Peptide M2EK] (Ac-VEENLKKAEEKLKKAEELLKKSEEILKKMEELSKK-NH2): the EC50 with MV Edmonston strain (plaque reduction, MV Edmonston strain, mean ± SD) stood at 0.1 ± 0.07 µM. Besides, the “SI, measles virus (Vero cells)” value in the data set on MV Edmonston strain (setting [6]) is given as over 989. Further, the “inhibition of plaque formation compared with the control group, SSPE Yamagata-1 strain (peptide screening)” value with SSPE Yamagata-1 strain [1] (peptide 10 μM, Vero cells and Vero/SLAM cells (Fig 2C), duplicate, at least twice independently) is over 97%. The EC50 in the data set on SSPE Yamagata-1 strain [1] (plaque reduction, SSPE Yamagata-1 strain, Vero cells, mean ± SD) stood at 0.05 ± 0.03 µM. For the same compound, the “SI, SSPE virus (Vero cells)” value in the data set with SSPE Yamagata-1 strain [1] (selectivity index, ratio of CC50 relative to EC50, Vero cells) is recorded as over 2041. The compound also yielded an EC50 in the data set on SSPE Yamagata-1 strain [2] (plaque reduction, SSPE Yamagata-1 strain, mean ± SD) of 0.02 ± 0.01 µM. Also, the “SI, SSPE virus (Vero/SLAM cells)” value with SSPE Yamagata-1 strain [2] (setting [6]) is over 6579. For the same compound, in the data set with Vero cells, the “CC50, SSPE virus (Vero cells)” value was over 100 µM and the “CC50, measles virus (Vero cells)” value is over 100 µM. Besides, in the data set with Vero/SLAM cells, the “CC50, SSPE virus (Vero/SLAM cells)” value is over 100 µM. In addition, the “viral inhibitory effect, peptide added post-infection (post-entry)” value with SSPE virus (peptide 10 μM overlaid at distinct time points after adsorption) was “observed in a time-dependent manner, particularly within 24 h”. Besides, in the data set with SSPE virus (peptide 10 μM, pretreatment 37°C 30 min or simultaneous with SSPE virus 0°C 30 min, compared with control), the “viral plaque numbers, peptide added before viral adsorption or at the same time as virus inoculation” value is “no reduction in viral plaque numbers”. Besides, the survival rate in the data set with SSPE Yamagata-1 strain [3] came out at 67%. Moreover, in the data set with SSPE Yamagata-1 strain [4], the “viral RNA copies in whole brain, lower than in M1-treated mice” value is given as “approximately four” and the “viral RNA copies in whole brain, lower than in enfuvirtide-treated mice” value is reported as “approximately three”. Moreover, the “survival of mice administered with peptides alone, with no symptoms” value in [5] is over 45 days.
